# Measured values reported in ChEMBL document CHEMBL3507680, “University of Dundee, Gates Library screen for HepG2 cell viability”.
# Assay: Human HepG2 cell viability assay in 384 well format
# Type: toxicity, cell-based
# Set-up: dose 125 nL, time 70.5 hour; cytotoxicity at 70.5 h: concentration not given beside the values
# Details: HepG2 cells, read-out: Inhibition
row,Structure (SMILES),cytotoxicity at 70.5 h
1,Cn1cc(CN2CCCC23CCN(C(=O)c2ccsc2)CC3)cn1,-5.87%
2,CN(C)C(=O)CO[C@H]1CN(Cc2ccoc2)[C@@H]2COC[C@H]12,-5.51%
3,CC(C)(C)n1cc(C(=O)O)c(-c2ccc(F)cc2F)n1,-18.2%
4,Cc1nn(C)c(C)c1C1CCCN1Cc1nc(-c2ccco2)oc1C (stereo not drawn),-2.24%
5,Cc1nc(NC(=O)N(C)Cc2ccsc2)nn1C,-7.49%
6,Cc1ccc(CS(=O)(=O)NCc2ccco2)cc1,-4.19%
7,COc1cccc(-c2n[nH]cc2CNC2CCN(C3CC3)CC2)c1,29.3%
8,Cc1ccc(NC(=O)c2ccc(N3CCCCC3)nn2)c(Cl)c1,3.33%
9,CNc1cc(CNC(=O)c2ccccn2)nc(-c2ccncc2)n1,11.9%
10,Cc1cc(CN(Cc2cccnc2)CC2CCCO2)on1 (stereo not drawn),-1.62%
11,c1cncc(Cc2nnc3n2CCN(CC2CCCNC2)CC3)c1 (stereo not drawn),-14%
12,O=C(c1cccnc1O)N1CCN(CCc2cccs2)CC1,-6.9%
13,CN(CC(=O)N1CCC(Oc2ccc(C(F)(F)F)cn2)CC1)S(C)(=O)=O,0.51%
14,COc1ccc(NC(=O)C(C)(C)C)cc1OCc1cccnc1,3.3%
15,CCn1ccnc1CN1CCN(C(C)C(=O)N2CCCC2)CC1 (stereo not drawn),-3.5%
16,Cc1n[nH]c(C)c1CN(C)C(C(=O)O)c1ccc2c(c1)OCO2 (stereo not drawn),6.84%
17,NC1CCCCN(Cc2ccccc2CS(=O)(=O)c2ccccc2)C1 (stereo not drawn),-8.29%
18,Cc1occc1C(=O)N1CCCN(Cc2cnn(C(C)C)c2)CC1,-6.65%
19,O=C(C1CCOCC1)N1CCC2(CC1)CN(c1ccsc1)C(=O)CO2,-6.23%
20,CN1CCOC(CN(C(=O)CCc2ccco2)c2nccs2)C1 (stereo not drawn),10.3%
21,CC(C)CCN1CCc2c(C(=O)N(C)Cc3ccccn3)nn(C)c2C1,-2.57%
22,CC(C)(NC(=O)C1CCCN(C2CCCC2)C1)c1nnc(N)s1 (stereo not drawn),-3.27%
23,CN1CCC(N(C)CCC(=O)N2CCC(CCc3ccccc3)CC2)C1 (stereo not drawn),26.3%

row,Structure (SMILES),cytotoxicity at 70.5 h
1,Cc1ccc(CN(CCN(C)C)Cc2ncc[nH]2)s1,-5.13%
2,Cc1cnn(CC2CCCN2C(=O)c2ccc3[nH]c(=O)[nH]c3c2)c1 (stereo not drawn),-1.55%
3,c1cnc(N2CCN(C3CCC[C@@H]4CN(CC5CC5)C[C@H]34)CC2)nc1 (stereo partly drawn),-1.3%
4,Cc1c(NC(C)C(C)C)cccc1C(=O)NCc1nnc(C)n1C (stereo not drawn),8.29%
5,OCCN1CCN(Cc2coc(-c3ccccc3Cl)n2)CC1,-19.7%
6,CCN(CC)C1COc2c(cc(Br)c(C)c2Br)C1=O (stereo not drawn),-7.72%
7,Cn1ncc2c(=O)[nH]c(CN3CCCC3Cc3ccc(F)cc3)nc21 (stereo not drawn),1.17%
8,CCOCc1nnc(NCc2cccc(C)c2)o1,-3.75%
9,CCC1CN(CCC(=O)N(C)C)CCN1CCOC (stereo not drawn),-8.66%
10,Cc1nccn1Cc1cccc(CNC(=O)c2ccn(C)c(=O)c2)c1,13.1%
11,CC(C)(C)c1noc(-c2nc3c([nH]2)CCCNC3=O)n1,-4.9%
12,COc1cccc(CC(=O)N2CCCC(n3nc(C)cc3C)C2)c1 (stereo not drawn),-14.1%
13,CC(C)c1noc(C[S+]([O-])CC(=O)Nc2ccc(F)c(F)c2)n1 (stereo not drawn),10.4%
14,COc1nc2ccn(CCNc3cc(C)ccn3)c(=O)c2cc1C#N,-3.78%
15,COC(=O)CCN1CCC(NC(=O)OC(C)(C)C)CC1,1.05%
16,Cc1nnsc1CN1C[C@H]2CC[C@@H]1CN(Cc1ccc(F)cc1)C2,27.1%
17,Cc1cccc(CN2CCC3(CCCN(C(=O)c4ccoc4)C3)C2=O)n1 (stereo not drawn),-3.14%
18,CN(Cc1ccccn1)C1CCCN(c2cccnn2)C1 (stereo not drawn),3.01%
19,O=C1C[C@H]2[C@@H](CCN2C(=O)c2ccc[nH]2)N1CCN1CCCC1,-2.17%
20,CN(C)c1ncc(-c2cc(C(=O)NC(C)(C)CO)n(CC3CC3)c2)cn1,-12.5%
21,O=C(c1ccc(F)cc1F)N1CC[C@H](O)[C@@H](N2CCOCC2)CC1,-13.9%
22,O=C(O)c1ccc(CN2CCCC(Cc3ccn[nH]3)C2)cc1 (stereo not drawn),-4.91%
23,Cc1ncc(CN(C)C(=O)c2ccc(N3CCOCC3)c(F)c2)s1,-6.71%

row,Structure (SMILES),cytotoxicity at 70.5 h
1,c1cnc2[nH]c(C3CCCNC3)c(CN3CCCOCC3)c2c1 (stereo not drawn),-5.16%
2,COc1ccc(CN(C)C2CCN(C(=O)C(C)C)CC2)c2cccnc12,-10.3%
3,Cc1c(Cl)cccc1N1CC(c2nnc(N)s2)CC1=O (stereo not drawn),5.68%
4,Cn1nnnc1SCCNC(=O)c1cccc2ccnn12,3.9%
5,COC(=O)NCC(=O)NC(c1ccc(Cl)cc1)C(F)(F)F (stereo not drawn),-8.75%
6,Cc1nc(CN2CCN(C(=O)CC(C)(C)c3ccccc3)CC2)no1,-5.37%
7,N#Cc1cccnc1NCCC1CCN(CC(F)(F)F)CC1,-5%
8,c1cc2n(n1)CC(CNCc1ccc(OCC3CC3)nc1)CN2 (stereo not drawn),1.11%
9,Cc1ncccc1C(=O)Nc1cccc(OCC(F)F)n1,-8.26%
10,O=C(NCc1cc[nH]n1)NCC(O)c1ccc(F)c(F)c1 (stereo not drawn),1.18%
11,c1ccc(C[C@H]2CN(Cc3nccs3)CC[C@@H]2OCC2CC2)cc1,-2.59%
12,Cc1cc(C2CCCN(CCCS(N)(=O)=O)C2)n[nH]1 (stereo not drawn),-5.94%
13,Cn1cc(CN2CC[C@H]3O[C@@H](COCc4cccnc4)CC[C@H]32)cn1,-12%
14,O=C(O)c1nnn(-c2ccccc2F)c1-c1ccncc1,5.16%
15,c1cncc(CN2CCO[C@H]3[C@H](OCCN4CCCC4)CC[C@@H]32)c1,-8.38%
16,CN1CCC(CNC(=O)c2ccc(O)nc2)c2ccccc21 (stereo not drawn),1.07%
17,O=C(CN1CCCS1(=O)=O)Nc1cccc(COC2CCCCC2)c1,-2.5%
18,COCCN1CCCc2sc(C(=O)N3CCCN(C)CC3)nc21,11.7%
19,CS(=O)(=O)c1cncnc1C1CCCN(C(=O)Nc2ccc(F)cc2)C1 (stereo not drawn),-4.34%
20,CC(=O)N1CCC(NC(=O)c2cc(S(N)(=O)=O)ccc2C)CC1,-3.13%
21,CN(C)C(=O)COc1ccccc1CN1CCCC2(C1)CN(C)C(=O)O2 (stereo not drawn),-7.63%
22,c1ncc2c(n1)CN(Cc1nc(-c3ccoc3)no1)CC2,-7.49%
23,Cc1ccc(F)cc1NC(=O)C1CCCN1C(=O)C(C)C (stereo not drawn),-5.39%

row,Structure (SMILES),cytotoxicity at 70.5 h
1,CCNc1ncc(C(=O)NCCc2ccc(C)c(C)c2)cn1,-4.37%
2,CC(C)(C)Cc1noc2ncc(C(=O)N3CCCSCC3)cc12,11.1%
3,O=C(Nc1ccc2c(c1)OCO2)N1CCN(CCn2ccnc2)CC1,-6.54%
4,Cc1nn(C)c(C)c1C1CCCN1Cc1nc2ccccc2o1 (stereo not drawn),-4.38%
5,COCCCC(=O)N(CCC(=O)O)Cc1ccc(F)c(F)c1,-12.3%
6,O[C@H]1CN(Cc2cccc(C(F)(F)F)c2)CC[C@@]12CCCO2,15.6%
7,O=C(NCC1CCN(CCc2ccccc2)C1)c1cc(Cl)c[nH]1 (stereo not drawn),2.19%
8,CCOc1ccc(CN2CCC3(CC2)CNC(=O)C3)cn1,-1.37%
9,CNC(=O)CN1CCO[C@H]2CN(CC3CCOC3)C[C@H]21 (stereo partly drawn),-1.2%
10,CC(C)N(CCNC(=O)c1n[nH]c2ccccc12)C(C)C,-7.32%
11,COCC(=O)N(C)Cc1nc(N(C)C)ncc1-c1ccncc1,-11.3%
12,Cc1occc1CNC(=O)C1CCCN1C(=O)C1CC1 (stereo not drawn),-6.76%
13,O=C1CCN(C(=O)NCC(c2ccccc2)c2ccccc2)CCN1,-2.48%
14,O=C(Nc1cccc(F)c1)C1=NOC2(CCNCC2)C1,-4.38%
15,Cc1ccc(CN(C)C(=O)CN2CCCCC2Cn2cncn2)cc1 (stereo not drawn),22.7%
16,Cc1cnn(C2CN(Cc3noc(-c4ccccc4)n3)C2)c1,-7.62%
17,NCC1CN(Cc2cn(CCC(N)=O)c3ccccc23)CCO1 (stereo not drawn),2.17%
18,CC(C#N)CNC(=O)Nc1ccc(-c2cc[nH]n2)cc1 (stereo not drawn),-1.44%
19,NC(=O)Cn1ccc(NC(=O)C2(c3ccc(F)cc3)CC2)n1,-11.2%
20,N#Cc1ccccc1NC(=O)c1ccc2c(c1)OCO2,-0.874%
21,COc1cccc2c1OCC(C(=O)N1CCN(S(C)(=O)=O)CC1)C2 (stereo not drawn),20.3%
22,O=C1c2cc(Br)cc(Br)c2OCC1(CN1CCCC1)CN1CCCC1,-1.34%
23,COCCN1C(=O)CC(N2CCN(c3ccc(F)cc3)CC2)C1=O (stereo not drawn),13.6%

row,Structure (SMILES),cytotoxicity at 70.5 h
1,CCc1nnc2n1CCN(C(=O)c1cc3ccc(F)cc3nc1C)C2,-3.67%
2,CN(C)CC1CSCCCN1C(=O)Nc1ccc(C(C)(C)C)cc1 (stereo not drawn),5.94%
3,CC(C)n1cc(C(=O)NCCCc2csc(N)n2)cn1,-9.21%
4,CCCC1c2cccn2CCN1C(=O)c1cc(CC)no1 (stereo not drawn),-2.22%
5,COc1ccc2c(c1)CCN(CCC(=O)O)CC2,12.3%
6,CCCN1CC[C@@H]2[C@@H](CO[C@H]2CNC(=O)c2nccn2C)C1,-5.44%
7,Cc1cc(C)n(CCCNC(=O)C(C)NC(=O)CC2CCCCC2)n1 (stereo not drawn),-5.96%
8,c1ccc(CO[C@@H]2CC[C@H]3[C@H]2OCCN3Cc2ccsc2)nc1,8.96%
9,COC(=O)c1ccc(C2SCC(=O)Nc3c2cnn3C(C)(C)C)cc1 (stereo not drawn),-13.2%
10,Cn1cc(-c2nc(CNCCn3cccn3)cs2)cn1,12.5%
11,O=C(COCc1nc(-c2ccncc2)no1)N1CCCC1,-4.88%
12,CN1CCN(Cc2ccccc2CNC(=O)c2cc(Br)ccc2F)CC1,10.8%
13,O=C(NCc1cccs1)[C@H]1CC[C@@H]2[C@@H](CCN2C2CCC2)O1,-3.48%
14,CCOc1cc(Cl)c(CN2CCC3(CCCNC3=O)C2)cc1OC (stereo not drawn),-5.69%
15,C[C@@H]1CN(Cc2nc(Cc3ccccc3F)no2)C[C@H](C)O1,32.5%
16,Cc1nc(-c2ccc(S(=O)(=O)N3CCC4(CC3)OCCO4)cc2)co1,-7.29%
17,O=S(=O)(c1ccc2c(c1)CCC2)N1CCCC(Cn2cncn2)C1 (stereo not drawn),0.224%
18,Cc1nn(C2CCS(=O)(=O)C2)c(O)c1Cc1cccc(Cl)c1 (stereo not drawn),-17.9%
19,CCOC1Sc2nnc(C)n2N=C1c1ccc(F)cc1 (stereo not drawn),-5.95%
20,COCCn1c2c(ccc1=O)CC(NCc1cccnc1OC)CC2 (stereo not drawn),-13.6%
21,Cc1cc(C(=O)NC(CC(C)C)C(=O)Nc2cc[nH]n2)c(C)o1 (stereo not drawn),0.859%
